Data published in ChEMBL document CHEMBL3351382, “New thiophene-1,2,4-triazole-5(3)-ones: highly bioactive thiosemicarbazides, structures of Schiff bases and triazole-thiols” (Eur J Med Chem, 2014).
In brackets after ≈: the same amount, converted by molar mass. Activity calls are given as the source filed them. The rule behind the calls is not given here.

How the values were obtained:
Staphylococcus aureus = assay: Antimicrobial activity against Staphylococcus aureus ATCC 25923 after 24 hrs by agar dilution method; type: functional
Bacillus cereus = assay: Antimicrobial activity against Bacillus cereus 709 Roma after 24 hrs by agar dilution method; type: functional
Enterococcus faecalis = assay: Antimicrobial activity against Enterococcus faecalis ATCC 29212 after 24 hrs by agar dilution method; type: functional, organism-based
[1] = Antioxidant activity assessed as DPPH scavenging activity at 10 ug/ml after 60 mins by spectrophotometry; type: physicochemical; details: 1 h
Listeria monocytogenes = assay: Antimicrobial activity against Listeria monocytogenes ATCC 43251 after 24 hrs by agar dilution method; type: functional, organism-based
[2] = test system: Mycolicibacterium smegmatis; assay: Antimicrobial activity against Mycobacterium smegmatis ATCC 607 after 24 hrs by agar dilution method; type: functional
[3] = Antioxidant activity assessed as trolox equivalent of ferric ion reducing activity using fe3+-TPTZ at 200 ug/ml by FRAP assay; type: physicochemical
Pseudomonas aeruginosa = assay: Antimicrobial activity against Pseudomonas aeruginosa ATCC 10145 after 24 hrs by agar dilution method; type: functional, organism-based
Saccharomyces cerevisiae = assay: Antimicrobial activity against Saccharomyces cerevisiae RSKK 251 after 24 hrs by agar dilution method; type: functional, organism-based
[4] = test system: Yersinia pseudotuberculosis; details: ATCC 911
Escherichia coli = assay: Antimicrobial activity against Escherichia coli ATCC 25922 after 24 hrs by agar dilution method; type: functional, organism-based
Candida albicans = assay: Antimicrobial activity against Candida albicans ATCC 60193 after 24 hrs by agar dilution method; type: functional, organism-based
[5] = Antioxidant activity assessed as DPPH scavenging activity at 200 ug/ml after 60 mins by spectrophotometry; type: physicochemical; details: 1 h

Structure (SMILES) | MIC (Staphylococcus aureus; ATCC 25923, 24 h) | MIC (Bacillus cereus) | MIC (Enterococcus faecalis) | Activity [1] | MIC (Listeria monocytogenes) | MIC ([2]; ATCC 607, 24 h) | Activity [3] | MIC (Pseudomonas aeruginosa) | MIC (Saccharomyces cerevisiae) | MIC [4] | MIC (Escherichia coli) | MIC (Candida albicans) | MIC (Staphylococcus aureus) | MIC [2] | Activity [5]
Cc1ccc(NC(=S)NNC(=O)Cn2nc(Cc3cccs3)n(N)c2=O)cc1 | 3220 µg/mL (≈ 7.72 mM) | inactive | inactive | 88.2% | inactive | 1610 µg/mL (≈ 3.86 mM) | 1257 µM | inactive | inactive | inactive | inactive | inactive |  |  | 
Nn1c(Cc2cccs2)nn(CC(=O)NNC(=S)Nc2ccccc2)c1=O | 2520 µg/mL (≈ 6.26 mM) | 5050 µg/mL (≈ 12.5 mM) | inactive | 83.4% | inactive | 1260 µg/mL (≈ 3.13 mM) | 584 µM | inactive | inactive | inactive | inactive | inactive |  |  | 
O=C(Cn1nc(Cc2cccs2)n(/N=C/c2cccs2)c1=O)N/N=C/c1cccs1 |  | inactive | inactive |  | inactive |  | 27 µM | inactive | inactive | inactive | inactive | inactive | inactive | inactive | 
CCOC(=O)Cn1nc(Cc2cccs2)n(N)c1=O |  | inactive | inactive |  | inactive | 994 µg/mL (≈ 3.52 mM) | 14 µM | inactive | inactive | inactive | inactive | inactive | inactive |  | 10%
NNC(=O)Cn1nc(Cc2cccs2)n(N)c1=O |  | inactive | inactive |  | inactive | 994 µg/mL (≈ 3.7 mM) | 1368 µM | inactive | inactive | inactive | inactive | inactive | inactive |  | 1.9%
Nn1c(Cc2cccs2)nn(Cc2nnc(S)n2-c2ccccc2)c1=O |  | inactive | inactive |  | inactive |  | 11 µM | inactive | inactive | inactive | inactive | inactive | inactive | inactive | 62.7%
Nn1c(Cc2cccs2)nn(CC(=O)NNC(=S)Nc2ccc(F)cc2)c1=O | 2410 µg/mL (≈ 5.72 mM) | inactive | inactive | 69% | inactive |  | 503 µM | inactive | inactive | inactive | inactive | inactive |  | inactive | 
COc1ccc(/C=N/NC(=O)Cn2nc(Cc3cccs3)n(N)c2=O)cc1 |  | inactive | inactive |  | inactive |  | 87 µM | inactive | inactive | inactive | inactive | inactive | inactive | inactive | 
O=C(Cn1nc(Cc2cccs2)n(/N=C/c2ccccc2)c1=O)N/N=C/c1ccccc1 |  | inactive | inactive |  | inactive |  | 35 µM | inactive | inactive | inactive | inactive | inactive | inactive | inactive | 
Nn1c(Cc2cccs2)nn(CC(=O)NNC(=S)Nc2ccc(Br)cc2)c1=O | 950 µg/mL (≈ 1.97 mM) | 950 µg/mL (≈ 1.97 mM) | inactive | 84.4% | inactive | 950 µg/mL (≈ 1.97 mM) | 635 µM | inactive | inactive | inactive | inactive | inactive |  |  | 
Nn1c(Cc2cccs2)nn(Cc2nnc(S)n2-c2ccc(Br)cc2)c1=O | 1750 µg/mL (≈ 3.77 mM) | 1750 µg/mL (≈ 3.77 mM) | inactive |  | inactive | 1750 µg/mL (≈ 3.77 mM) | 70 µM | inactive | inactive | inactive | inactive | inactive |  |  | 22.1%
Nn1c(Cc2cccs2)nn(Cc2nnc(S)n2-c2ccc(F)cc2)c1=O |  | inactive | inactive |  | inactive |  | 39 µM | inactive | inactive | inactive | inactive | inactive | inactive | inactive | 31.7%
COc1ccc(/C=N/NC(=O)Cn2nc(Cc3cccs3)n(/N=C/c3ccc(OC)cc3)c2=O)cc1 |  | inactive | inactive |  | inactive |  | 54 µM | inactive | inactive | inactive | inactive | inactive | inactive | inactive | 
Nn1c(Cc2cccs2)nn(CC(=O)N/N=C/c2ccccc2)c1=O |  | inactive | inactive |  | inactive |  | 40 µM | inactive | inactive | inactive | inactive | inactive | inactive | inactive | 
Nn1c(Cc2cccs2)nn(CC(=O)N/N=C/c2cccnc2)c1=O |  | inactive | inactive |  | inactive |  | 26 µM | inactive | inactive | inactive | inactive | inactive | inactive | inactive | 
Nn1c(Cc2cccs2)nn(CC(=O)N/N=C/c2cccs2)c1=O |  | inactive | inactive |  | inactive |  | 36 µM | inactive | inactive | inactive | inactive | inactive | inactive | inactive | 
O=C(Cn1nc(Cc2cccs2)n(/N=C/c2ccco2)c1=O)N/N=C/c1ccco1 |  | inactive | inactive |  | inactive |  | 79 µM | inactive | inactive | inactive | inactive | inactive | inactive | inactive | 30.9%
CC1(C)S[C@@H]2[C@H](NC(=O)[C@H](N)c3ccccc3)C(=O)N2[C@H]1C(=O)O |  | Active | Active |  | Active |  |  | Active |  | Active | Active |  | Active | Active | 
Nn1c(Cc2cccs2)nn(CC(=O)N/N=C/c2ccco2)c1=O |  | inactive | inactive |  | inactive |  | 10 µM | inactive | inactive | inactive | inactive | inactive | inactive | inactive | 9.7%
Cc1ccc(-n2c(S)nnc2Cn2nc(Cc3cccs3)n(N)c2=O)cc1 |  | inactive | inactive |  | inactive |  | 54 µM | inactive | inactive | inactive | inactive | inactive | inactive | inactive | 23.9%
OC(Cn1cncn1)(Cn1cncn1)c1ccc(F)cc1F |  |  |  |  |  |  |  |  | Active |  |  | Active |  |  | 
O=C(Cn1nc(Cc2cccs2)n(/N=C/c2cccnc2)c1=O)N/N=C/c1cccnc1 |  | inactive | inactive |  | inactive |  | 16 µM | inactive | inactive | inactive | inactive | inactive | inactive | inactive | 
